According to patent US9212164B2, “Pesticidal compositions and processes related thereto” (Dow AgroSciences LLC, priority 2012, dated 2015):

Legend:
Assay type in all cases: in vivo
[1] = test system: Green Peach Aphid (GPA) (Myzus persicae); test: Bioassays on Green Peach Aphid, foliar spray on cabbage seedlings; details: 200 ppm spray on cabbage seedlings, graded after three days
Excerpt: GPA is the most significant aphid pest of peach trees, causing decreased growth, shriveling of the leaves, and the death of various tissues. It is also hazardous because it acts as a vector for the transport of plant viruses, such as potato virus Y and potato leafroll virus to members of the nightshade/potato family Solanaceae, and various mosaic viruses to many other food crops. GPA attacks such plants as broccoli, burdock, cabbage, carrot, cauliflower, daikon, eggplant, green beans, lettuce, macadamia, papaya, peppers, sweet potatoes, tomatoes, watercress, and zucchini, among other plants. GPA also attacks many ornamental crops such as carnation, chrysanthemum, flowering white cabbage, poinsettia, and roses. GPA has developed resistance to many pesticides.
Certain molecules disclosed in this document were tested against GPA using procedures described in the following example. In the reporting of the results, the “GPA Rating Table” was used (See Table Section).
Cabbage seedlings grown in 3-inch pots, with 2-3 small (3-5 cm) true leaves, were used as test substrate. The seedlings were infested with 20-50 GPA (wingless adult and nymph stages) one day prior to chemical application. […] Percent Control was measured by using Abbott's correction formula (W. S. Abbott, “A Method of Computing the Effectiveness of an Insecticide” J. Econ. Entomol. 18 (1925), pp. 265-267) as follows. […]

[2] = test system: Cabbage Looper (CL) (Trichoplusia ni); test: Bioassays on CL, 128-well diet tray assay; details: 168 h, 50 μg/cm^2 on artificial diet, second instar larvae, five to seven days, 25° C., read-out: CL Rating (percent mortality)
Protocol: (§1) Certain molecules disclosed in this document were tested against BAW, CEW and CL using procedures described in the following examples. In the reporting of the results, the “BAW & CEW & CL Rating Table” was used (See Table Section).
Bioassays on CL (Trichoplusia ni)
Bioassays on CL were conducted using a 128-well diet tray assay. One to five second instar CL larvae were placed in each well (3 mL) of the diet tray that had been previously filled with 1 mL of artificial diet to which 50 μg/cm^2 of the test compound (dissolved in 50 μL of 90:10 acetone-water mixture) had been applied (to each of eight wells) and then allowed to dry. Trays were covered with a clear self-adhesive cover, and held at 25° C., 14:10 light-dark for five to seven days. Percent mortality was recorded for the larvae in each well; activity in the eight wells was then averaged. The results are indicated in the table entitled “Table 4: Assay Results Part 2” (See Table Section).

[3] = test system: Beet Armyworm (BAW) (Spodoptera exigua); test: Bioassays on BAW, 128-well diet tray assay; details: Spodoptera exigua, 168 h; 50 μg/cm^2 on artificial diet, second instar larvae, five to seven days, 25° C.; read-out: BAW Rating (percent mortality)
Protocol: as §1
Bioassays on BAW (Spodoptera exigua)
Bioassays on BAW were conducted using a 128-well diet tray assay. One to five second instar BAW larvae were placed in each well (3 mL) of the diet tray that had been previously filled with 1 mL of artificial diet to which 50 μg/cm^2 of the test compound (dissolved in 50 μL of 90:10 acetone-water mixture) had been applied (to each of eight wells) and then allowed to dry. Trays were covered with a clear self-adhesive cover, and held at 25° C., 14:10 light-dark for five to seven days. Percent mortality was recorded for the larvae in each well; activity in the eight wells was then averaged. The results are indicated in the tables entitled “Table 3: Assay Results Part 1” and “Table 4: Assay Results Part 2” (See Table Section).

| Structure (SMILES) | GPA Rating (corrected % control) [1] | mortality at 50 µg/cm2 [2] [%] | mortality at 50 µg/cm2 [3] [%] |
| --- | --- | --- | --- |
| O=C(NC1(C(=O)NCC(F)(F)F)CCC1)c1ccc(/C=C/C(c2cc(Cl)c(Cl)c(Cl)c2)C(F)(F)F)cc1Br (stereo not drawn) [Compound F5] | B (More than 0 - Less than 80) | 50 to 100 | 50 to 100 |
| O=C(NC1(C(=O)NCC(F)(F)F)CC1)c1ccc(/C=C/C(c2cc(Cl)c(Cl)c(Cl)c2)C(F)(F)F)cc1I (stereo not drawn) [FA2] | B (More than 0 - Less than 80) | 50 to 100 | 50 to 100 |
| O=C(NC1(C(=O)NCC(F)(F)F)CC1)c1ccc(/C=C/C(c2cc(Cl)c(Cl)c(Cl)c2)C(F)(F)F)cc1Br (stereo not drawn) [Compound F3] |  | 50 to 100 | 50 to 100 |
| COc1ccc(CNC(=O)C2(NC(=O)c3ccc(/C=C/C(c4cc(Cl)c(Cl)c(Cl)c4)C(F)(F)F)cc3Br)CC2)cc1 (stereo not drawn) [FA33] |  | 50 to 100 | 50 to 100 |
| O=C(NC1(C(=O)Nc2cccc(C(F)(F)F)c2)CC1)c1ccc(/C=C/C(c2cc(Cl)c(Cl)c(Cl)c2)C(F)(F)F)cc1Br (stereo not drawn) [FA37] |  | 0 | 0 to 50 |
| Cc1cc(/C=C/C(c2cc(Cl)c(Cl)c(Cl)c2)C(F)(F)F)ccc1C(=O)NC1(C(=O)NCC(F)(F)F)CC1 (stereo not drawn) [Compound F2] |  | 50 to 100 | 50 to 100 |
| CCNC(=O)C1(NC(=O)c2ccc(/C=C/C(c3cc(Cl)c(Cl)c(Cl)c3)C(F)(F)F)cc2Br)CC1 (stereo not drawn) [Compound P1023] |  | 50 to 100 | 50 to 100 |
| COc1ccccc1CN(C)C(=O)C1(NC(=O)c2ccc(/C=C/C(c3cc(Cl)c(Cl)c(Cl)c3)C(F)(F)F)cc2Br)CC1 (stereo not drawn) [FA46] |  | 50 to 100 | 0 to 50 |
| Cc1cc(C(/C=C/c2ccc(C(=O)NC3(C(=O)NCC(F)(F)F)CC3)c(C(F)(F)F)c2)C(F)(F)F)ccc1Cl (stereo not drawn) [Compound P245] |  | 50 to 100 | 50 to 100 |
| O=C(NC1(C(=O)NC2COC2)CC1)c1ccc(/C=C/C(c2cc(Cl)c(Cl)c(Cl)c2)C(F)(F)F)cc1Br (stereo not drawn) [FA20] |  | 50 to 100 | 50 to 100 |
| O=C(NC1(C(=O)NCc2ccc(C(F)(F)F)cc2)CC1)c1ccc(/C=C/C(c2cc(Cl)c(Cl)c(Cl)c2)C(F)(F)F)cc1Br (stereo not drawn) [FA34] |  | 50 to 100 | 50 to 100 |
| Cc1cc(C(/C=C/c2ccc(C(=O)NC3(C(=O)NCC(F)(F)F)CC3)c(Br)c2)C(F)(F)F)cc(Cl)c1Cl (stereo not drawn) [FA4] |  | 50 to 100 | 50 to 100 |
| O=C(NC1(C(=O)NCC(F)(F)F)CC1)c1ccc(/C=C/C(c2ccc(F)c(F)c2F)C(F)(F)F)cc1C(F)(F)F (stereo not drawn) [Compound P65] |  | 50 to 100 | 50 to 100 |
| O=C(NC1(C(=O)NCC(F)(F)F)CC1)c1ccc(/C=C/C(c2cc(Br)cc(Br)c2)C(F)(F)F)cc1C(F)(F)F (stereo not drawn) [Compound P1198] |  | 50 to 100 | 50 to 100 |
| O=C(NC1(C(=O)NCC(F)(F)F)CC1)c1ccc(/C=C/C(c2cc(Cl)cc(Br)c2)C(F)(F)F)cc1Br (stereo not drawn) [Compound P378] |  | 50 to 100 | 50 to 100 |
| O=C(NC1(C(=O)NCC(F)F)CC1)c1ccc(/C=C/C(c2cc(Br)cc(Br)c2)C(F)(F)F)cc1Br (stereo not drawn) [Compound P1193] |  | 50 to 100 | 50 to 100 |
| O=C(NC1(C(=O)NCC(F)(F)F)CC1)c1ccc(/C=C/C(c2cc(Cl)c(Cl)c(Cl)c2)C(F)(F)F)cc1Cl (stereo not drawn) [Compound F1, (E)-2-Chloro-4-(4,4,4-trifluoro-3-(3,4,5-trichlorophenyl)but-1-enyl)-N-(1-(2,2,2-trifluoroethylcarbamoyl)cyclopropyl)benzamide] |  | 50 to 100 | 50 to 100 |
| O=C(NC1(C(=O)NCC(F)(F)F)CC1)c1ccc(/C=C/C(c2ccc(Cl)c(Cl)c2)C(F)(F)F)cc1Br (stereo not drawn) [Compound P1093] |  | 50 to 100 | 50 to 100 |
| O=C(NC1(C(=O)NCC(F)(F)F)CC1)c1ccc(/C=C/C(c2cc(Cl)cc(Cl)c2)C(F)(F)C(F)(F)F)cc1Br (stereo not drawn) [Compound P1043] |  | 50 to 100 | 50 to 100 |
| CC(C)CNC(=O)C1(NC(=O)c2ccc(/C=C/C(c3cc(Cl)c(Cl)c(Cl)c3)C(F)(F)F)cc2Br)CC1 (stereo not drawn) [FA30] |  | 50 to 100 | 50 to 100 |
| O=C(NC1(C(=O)NCc2cccc(Cl)c2)CC1)c1ccc(/C=C/C(c2cc(Cl)c(Cl)c(Cl)c2)C(F)(F)F)cc1Br (stereo not drawn) [FA27] |  | 50 to 100 | 50 to 100 |
| O=C(NC1(C(=O)NCC(F)F)CC1)c1ccc(/C=C/C(c2cc(Cl)c(Cl)c(Cl)c2)C(F)(F)F)cc1C(F)(F)F (stereo not drawn) [Compound P1015] |  | 50 to 100 | 50 to 100 |
| CC(F)(F)C(/C=C/c1ccc(C(=O)NC2(C(=O)NCC(F)(F)F)CC2)c(C(F)(F)F)c1)c1ccc(Cl)c(Cl)c1 (stereo not drawn) [FA9] |  | 50 to 100 | 50 to 100 |
| O=C(NC1(C(=O)NCCF)CC1)c1ccc(/C=C/C(c2cc(Cl)c(Cl)c(Cl)c2)C(F)(F)F)cc1C(F)(F)F (stereo not drawn) [Compound P1020] |  | 50 to 100 | 50 to 100 |
| O=C(NC1(C(=O)NCC(F)(F)F)CC1)c1ccc(/C=C/C(c2ccc(Br)c(Br)c2)C(F)(F)F)cc1C(F)(F)F (stereo not drawn) [Compound P425] |  | 50 to 100 | 50 to 100 |
| O=C(NC1(C(=O)NCC(F)(F)F)CC1)c1ccc(/C=C/[C@H](c2cc(Cl)c(Cl)c(Cl)c2)C(F)(F)F)cc1C(F)(F)F (single isomer, unassigned) [Compound F8A] |  | 50 to 100 | 50 to 100 |
| O=C(NC1(C(=O)Nc2cccc(Cl)c2)CC1)c1ccc(/C=C/C(c2cc(Cl)c(Cl)c(Cl)c2)C(F)(F)F)cc1Br (stereo not drawn) [FA38] |  | 0 to 50 | 0 to 50 |
| O=C(NC1(C(=O)NCC(F)(F)F)CC1)c1ccc(/C=C/C(c2cc(Cl)c(Br)c(Cl)c2)C(F)(F)F)cc1C(F)(F)F (stereo not drawn) [FA8] |  | 50 to 100 | 50 to 100 |
| O=C(NC1(C(=O)NCC(F)(F)F)CC1)c1ccc(/C=C/C(c2cc(Br)c(Cl)c(Br)c2)C(F)(F)F)cc1Br (stereo not drawn) [FA6] |  | 50 to 100 | 50 to 100 |
